One compound from patent US10422079B2, “Method for preserving recycled fiber by using biocides in paper manufacturing and method for manufacturing paper using recycled fibers” (ECOLAB USA INC., priority 2014, dated 2019) can be followed below.

The assay concerns pulp contaminated by the microbes (bacteria). Kind of assay: Starch degradation in microbe-inoculated recycled-fiber (AOCC) pulp treated with biocides, 5 days (Example 4). It is filed as cell-based. The settings on record: total chlorine 20 ppm, added once a day, combinations 10 ppm + 10 ppm. Here is the method:
150 g standard American Old Corrugated Containers (sometimes called as AOCC) were weighted. The total starch content of the recycled American Old Corrugated Containers was detected according to the same starch measuring method of example 2, and the result was 9.1%.
In the pulping and papermaking process, the above waste paper was cut into pieces and immersed into 15 kilograms water overnight. The obtained sample was disintegrated by Valley Beater for 30 minutes and pulped for 20 minutes, and the pulp concentration thereof is about 1%.
The above obtained pulp was inoculated by the pulp which was contaminated by bacteria in the ratio of one to thousand, followed by cultivating for 3 hours at 37° C. The simulation pulp contaminated by the microbes was obtained to use for the following experiment. The pH, oxidation-reduction potential (ORP), concentration of adenosine triphosphate (ATP) and total number of aerobic bacteria colonies of the pulp which was contaminated initially by the microbes were detected. […]
The above substances were added into the pulps once a day and the concentrations of the total chlorine were maintained at 20 ppm by controlling the addition doses. The whole experiment was conducted for 5 days and the total starches contents were monitored.

Consider `OCl` [sodium hypochlorite], for which the starch degradation rate is reported as 5%.
